Measured values reported in US10206907B2, “Compounds useful for the treatment of degenerative and inflammatory diseases” (GALAPAGOS NV, priority 2008, dated 2019).

Columns and labels:
[1] = Caco2 permeability (bi-directional); type: in vitro ADME, human; conditions: human, pH 7.4; for Papp A→B at 1 h, 10 µM: Caco-2, apical to basolateral, read-out: Papp (A2B); for efflux ratio at 1 h, 10 µM: Caco-2, ratio of PappB>A/PappA>B
Experimental: Bi-directional Caco-2 assays were performed as described below.
2×10^5 cells/well were seeded in plating medium consisting of DMEM+GlutaMAXI+1% NEAA+10% FBS (FetalClone II)+1% Pen/Strep. The medium was changed every 2-3 days.
50 μM Lucifer Yellow (Sigma) was added to the donor buffer in all wells to assess integrity of the cell layers by monitoring Lucifer Yellow permeation. As Lucifer Yellow (LY) cannot freely permeate lipophilic barriers, a high degree of LY transport indicates poor integrity of the cell layer.
After a 1 hour incubation at 37° C. while shaking at an orbital shaker at 150 rpm, 70 μL aliquots were taken from both apical (A) and basal (B) chambers and added to 100 μL1 50:50 acetonitrile:water solution containing analytical internal standard (0.5 μM carbamazepine) in a 96 well plate.
Concentrations of compound in the samples were measured by high performance liquid-chromatography/mass spectroscopy (LC-MS/MS).
The Efflux ratios, as an indication of active efflux from the apical cell surface, were calculated using the ratio of PappB>A/PappA>B.
The following assay acceptance criteria were used:
Lucifer yellow permeability: ≤100 nm/s

[2] = system: JAK-STAT signalling in HeLa cells; experiment: JAK-STAT signalling assay (OSM-triggered pSTAT1(2)-luciferase reporter in HeLa cells); type: cell-based; conditions: Homo sapiens; HeLa cells, OSM-triggered pSTAT1(2)-luciferase reporter; read-out: STAT signalling EC50
How it was run: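 Read-out is oncostatin M–driven pSTAT1(2)-luciferase activity, corrected by co-transfected LacZ β-galactosidase, in transiently transfected HeLa cells cultured overnight at 37 °C, 10% CO2. Inhibition percentages against positive and negative controls were plotted across doses to derive EC50.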

[3] = biological target: Recombinant human JAK1 catalytic domain (Homo sapiens (Human), UniProt P23458); experiment: JAK1 inhibition assay; type: biochemical; conditions: semi-quantitative score
How it was run: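 IC50 values come from dose-response series, with each point expressed as percent inhibition of cpm. Vehicle sets full activity and 10 μM staurosporine sets background. Incorporated radioactivity counted by scintillation after washing with 75 mM phosphoric acid.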

[4] = Microsomal stability, human liver microsomes; type: in vitro ADME; conditions: percentage of compound remaining after 60 minutes, 3 μM compound
How it was run: (§1)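 Percent parent remaining after 60 min was determined by LCMS against a time-zero sample quenched before microsome addition. Incubations ran at 37°C with liver microsomes and a G6PDH-based NADPH-regenerating cofactor mix. Quench was MeOH or ACN (1:1).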

[5] = Microsomal stability, rat liver microsomes; type: in vitro ADME; conditions: percentage of compound remaining after 60 minutes, 3 μM compound
How it was run: as §1

MMP13 in SW1353 cells = experiment: OSM/IL-1β signaling assay (MMP13 levels in SW1353 cells); type: cell-based; conditions: Homo sapiens; SW1353 cells, OSM and IL-1β triggered, MMP13 levels 48 hours after triggering; read-out: MMP13 EC50;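 note: secreted MMP13 captured by antibody, activated with APMA and its activity read by fluorescence, inhibition scaled between vehicle-treated triggered wells (0%) and untriggered wells (100%)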
[6] = biological target: Recombinant human JAK2 catalytic domain (Homo sapiens (Human), UniProt O60674); experiment: JAK2 inhibition assay; type: biochemical; conditions: semi-quantitative score
How it was run: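 Activity was taken as vehicle cpm minus cpm with 10 μM staurosporine, and inhibition was expressed on that scale. Incubation was 90 min at 30 °C, followed by acid quench, phosphoric acid washes and Microscint counting. Compounds were tested as dose series to obtain IC50.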

[7] = biological target: Recombinant human JAK3 catalytic domain (Homo sapiens (Human), UniProt P52333); experiment: JAK3 inhibition assay; type: biochemical; conditions: semi-quantitative score
Experimental: Plates were washed 6 times with 300 μL per well of a 75 mM phosphoric acid solution and the bottom of the plates was sealed. 40 μL/well of Microscint-20 was added, the top of the plates was sealed and readout was performed using the Topcount (Perkin Elmer). Kinase activity was calculated by subtracting counts per minute (cpm) obtained in the presence of a positive control inhibitor (10 μM staurosporine) from cpm obtained in the presence of vehicle. The ability of a test compound to inhibit this activity was determined as: Percentage inhibition=((cpm determined for sample with test compound present−cpm determined for sample with positive control inhibitor) divided by (cpm determined in the presence of vehicle−cpm determined for sample with positive control inhibitor))*100%.
Dose dilution series were prepared for the compounds enabling the testing of dose-response effects in the JAK3 assay and the calculation of the IC50 for each compound.

Chain of Recombinant human JAK1 catalytic domain (P23458 850-1154): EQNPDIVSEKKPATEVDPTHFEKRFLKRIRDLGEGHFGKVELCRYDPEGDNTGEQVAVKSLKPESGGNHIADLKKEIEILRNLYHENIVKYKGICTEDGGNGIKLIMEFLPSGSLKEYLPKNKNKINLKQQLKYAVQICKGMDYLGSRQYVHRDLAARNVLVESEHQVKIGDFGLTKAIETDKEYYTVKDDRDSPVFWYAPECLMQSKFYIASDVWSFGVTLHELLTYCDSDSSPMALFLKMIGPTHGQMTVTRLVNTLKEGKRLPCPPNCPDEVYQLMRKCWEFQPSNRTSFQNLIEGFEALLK
Chain of Recombinant human JAK2 catalytic domain (O60674 808-1132): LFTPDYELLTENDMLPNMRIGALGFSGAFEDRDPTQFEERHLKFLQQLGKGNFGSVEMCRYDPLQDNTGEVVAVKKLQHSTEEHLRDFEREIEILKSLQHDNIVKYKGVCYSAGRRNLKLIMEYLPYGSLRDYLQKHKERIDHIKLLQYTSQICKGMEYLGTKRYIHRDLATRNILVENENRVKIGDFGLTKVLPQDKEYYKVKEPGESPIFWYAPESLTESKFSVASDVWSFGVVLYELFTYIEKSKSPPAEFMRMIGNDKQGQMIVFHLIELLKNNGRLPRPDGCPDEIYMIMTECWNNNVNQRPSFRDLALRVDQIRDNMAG
Chain of Recombinant human JAK3 catalytic domain (P52333 781-1124): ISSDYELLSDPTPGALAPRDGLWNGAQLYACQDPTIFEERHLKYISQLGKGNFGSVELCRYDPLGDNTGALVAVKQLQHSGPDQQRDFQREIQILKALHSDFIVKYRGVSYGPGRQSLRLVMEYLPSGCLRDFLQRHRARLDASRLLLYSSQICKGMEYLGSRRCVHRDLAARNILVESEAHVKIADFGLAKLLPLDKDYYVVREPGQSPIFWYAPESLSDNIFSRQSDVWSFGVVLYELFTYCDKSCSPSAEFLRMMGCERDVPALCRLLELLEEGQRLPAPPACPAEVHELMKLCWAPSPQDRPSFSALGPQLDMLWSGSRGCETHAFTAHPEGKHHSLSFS

SMILES	Papp A→B at 1 h, 10 µM [1]	efflux ratio at 1 h, 10 µM [1]	EC50 [2]	IC50 [3]	Microsomal Stability Human (%) [4]	Microsomal Stability Rat (%) [5]	EC50 (MMP13 in SW1353 cells)	IC50 [6]	IC50 [7]
O=C(Nc1nc2cccc(-c3ccc(C(=O)N4CCC(F)(F)CC4)cc3)n2n1)C1CC1 [Compound 168]	11 ×10⁻⁶ cm/s	–	> 1000 nM	–	**** (**** 76-100)	*** (*** 51-75)	> 1000 nM	–	–
CC(=O)Nc1ccc(COc2ccc(-c3cccc4nc(NC(=O)C5CC5)nn34)cc2)cc1 [Compound 92, N-(5-(4-(4-acetamidobenzyloxy)phenyl)-[1,2,4]triazolo[1,5-a]pyridin-2-yl)cyclopropanecarboxamide]	–	–	–	< 100 nM	** (** 26-50)	* (* 0-25)	> 1000 nM	101 to 500 nM	501 to 1000 nM
O=C(NCc1cccnc1)c1ccc(-c2cccc3nc(NC(=O)C4CC4)nn23)cc1 [Compound 42, 4-(2-(cyclopropanecarboxamido)-[1,2,4]triazolo[1,5-a]pyridin-5-yl)-N-(pyridin-3-ylmethyl)benzamide]	0.45 ×10⁻⁶ cm/s	68.8	–	101 to 500 nM	*** (*** 51-75)	**** (**** 76-100)	–	–	–
O=C(Nc1nc2cccc(-c3ccc(C(=O)N4CCCC(C(F)(F)F)C4)cc3)n2n1)C1CC1 (stereo not drawn) [Compound 164, N-(5-(4-(3-(trifluoromethyl)piperidine-1-carbonyl)phenyl)-[1,2,4]triazol[1,5-a]pyridin-2-yl)cyclopropanecarboxamide]	6.9 ×10⁻⁶ cm/s	2.5	> 1000 nM	< 100 nM	** (** 26-50)	** (** 26-50)	> 1000 nM	–	–
N#CCc1ccc(OCc2ccc(-c3cccc4nc(NC(=O)C5CC5)nn34)cc2)cc1 [Compound 301, Cyclopropanecarboxylic acid {5-[4-(4-cyanomethyl-phenoxymethyl)-phenyl]-[1,2,4]triazolo[1,5-a]pyridin-2-yl}-amide]	13.9 ×10⁻⁶ cm/s	1.31	101 to 500 nM	< 100 nM	–	* (* 0-25)	> 1000 nM	< 100 nM	–
O=C(Nc1nc2cccc(-c3ccc(N4CCCCC4)nc3)n2n1)C1CC1 [Compound 3, N-(5-(6-(piperidin-1-yl)pyridin-3-yl)-[1,2,4]triazolo[1,5-a]pyridin-2-yl)cyclopropanecarboxamide]	–	–	–	101 to 500 nM	–	–	–	> 1000 nM	> 1000 nM
Cn1cnc(COc2ccc(-c3cccc4nc(NC(=O)C5CC5)nn34)cc2)n1 [Compound 199, Cyclopropanecarboxylic acid {5-[4-(1-methyl-1H-[1,2,4]triazol-3-ylmethoxy)-phenyl]-[1,2,4]triazolo[1,5-a]pyridin-2-yl}-amide]	4.53 ×10⁻⁶ cm/s	8.83	> 1000 nM	< 100 nM	**** (**** 76-100)	**** (**** 76-100)	> 1000 nM	101 to 500 nM	–
N#CC1CCN(C(=O)c2ccc(-c3cccc4nc(NC(=O)C5CC5)nn34)cc2)CC1 [Compound 210, Cyclopropanecarboxylic acid {5-[4-(4-cyano-piperidine-1-carbonyl)-phenyl]-[1,2,4]triazolo[1,5-a]pyridin-2-yl)-amide]	0.45 ×10⁻⁶ cm/s	76.2	> 1000 nM	< 100 nM	**** (**** 76-100)	**** (**** 76-100)	1 to 500 nM	101 to 500 nM	–
O=C(Cc1ccc(-c2cccc3nc(NC(=O)C4CC4)nn23)cc1)Nc1cccnc1 [Compound 316, Cyclopropanecarboxylic acid {5-[4-(pyridin-3-ylcarbamoylmethyl)-phenyl)-[1,2,4]triazolo[1,5-a]pyridin-2-yl}-amide]	0.3 ×10⁻⁶ cm/s	104	> 1000 nM	< 100 nM	*** (*** 51-75)	**** (**** 76-100)	> 1000 nM	101 to 500 nM	–
O=C(Nc1nc2cccc(-c3ccc(CN4CCCC(F)C4)cc3)n2n1)C1CC1 (stereo not drawn) [Compound 280, Cyclopropanecarboxylic acid {5-[4-(3-fluoro-piperidin-1-ylmethyl)-phenyl]-[1,2,4]triazolo[1,5-a]pyridin-2-yl}-amide]	11.4 ×10⁻⁶ cm/s	1.14	501 to 1000 nM	< 100 nM	*** (*** 51-75)	** (** 26-50)	> 1000 nM	–	–

Now from value to compound:

Papp A→B at 1 h, 10 µM [1]	efflux ratio at 1 h, 10 µM [1]	EC50 [2]	IC50 [3]	Microsomal Stability Human (%) [4]	Microsomal Stability Rat (%) [5]	EC50 (MMP13 in SW1353 cells)	IC50 [6]	IC50 [7]	SMILES
0.5 ×10⁻⁶ cm/s	1	> 1000 nM	< 100 nM	* (* 0-25)	* (* 0-25)	–	–	–	O=C(Nc1nc2cccc(-c3ccc4c(ccn4C(=O)CCc4ccccc4)c3)n2n1)C1CC1 [Compound 179, Cyclopropanecarboxylic Acid {5-[1-(3-phenyl-propionyl)-1H-indol-5-yl]-[1,2,4]triazolo[1,5-a]pyridin-2-yl}-amide]
0.5 ×10⁻⁶ cm/s	36	> 1000 nM	< 100 nM	**** (**** 76-100)	**** (**** 76-100)	> 1000 nM	101 to 500 nM	–	O=C(Nc1nc2cccc(-c3ccc(C(=O)N4CCC(O)CC4)cc3)n2n1)C1CC1 [Compound 209, Cyclopropanecarboxylic acid {5-[4-(4-hydroxy-piperidine-1-carbonyl)-phenyl]-[1,2,4]triazolo[1,5-a]pyridin-2-yl}-amide]
6.95 ×10⁻⁶ cm/s	2	501 to 1000 nM	< 100 nM	* (* 0-25)	* (* 0-25)	1 to 500 nM	–	–	CC1(C)CCCN(C(=O)c2ccc(-c3cccc4nc(NC(=O)C5CC5)nn34)cc2)C1 [Compound 175, N-(5-(4-(3,3-dimethylpiperidine-1-carbonyl)phenyl)-[1,2,4]triazolo[1,5-a]pyridin-2-yl)cyclopropanecarboxamide]
3.2 ×10⁻⁶ cm/s	–	501 to 1000 nM	< 100 nM	*** (*** 51-75)	*** (*** 51-75)	501 to 1000 nM	101 to 500 nM	–	N#Cc1ccc(COC2CN(C(=O)c3ccc(-c4cccc5nc(NC(=O)C6CC6)nn45)cc3)C2)cc1 [Compound 325, Cyclopropanecarboxylic acid (5-{4-[3-(4-cyano-benzyloxy)-azetidine-1-carbonyl]-phenyl}-[1,2,4]triazolo[1,5-a]pyridin-2-yl)-amide]
4.23 ×10⁻⁶ cm/s	7.38	101 to 500 nM	< 100 nM	* (* 0-25)	* (* 0-25)	1 to 500 nM	–	–	O=C(NCCc1cnn(-c2ccccc2)c1)c1ccc(-c2cccc3nc(NC(=O)C4CC4)nn23)cc1 [Compound 106, 4-(2-(cyclopropanecarboxamido)-[1,2,4]triazolo[1,5-a]pyridin-5-yl)-N-(2-(1-phenyl-1H-pyrazol-4-yl)ethyl)benzamide]
